ChEMBL document CHEMBL1201862, “PubChem BioAssay data set” (2004)
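Five compound concentrations were applied to cells in 96-well plates for 48 hours; endpoints were derived by simple linear interpolation of the resulting dose-response curve. The concentration for 50% growth inhibition is given as GI50.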 Calls of active or inactive are those of the source. Cut-off read from the data, not from the text of the source: active = GI50 up to about 1.1 µM and inactive = higher.

Assays:
Assay in all cases: NCI tumour cell line growth inhibition, 48 h
MDA-MB-435 = system: MDA-MB-435
NCI-H23 = system: NCI-H23
MOLT-4 = system: MOLT-4
ACHN = system: ACHN
EKVX = system: EKVX
K562 = system: K562
SK-OV-3 = system: SK-OV-3
SNB-75 = system: SNB-75
OVCAR-8 = system: OVCAR-8
KM12 = system: KM12
UACC-62 = system: UACC-62
HOP-62 = system: HOP-62
SK-MEL-2 = system: SK-MEL-2
COLO 205 = system: COLO 205
OVCAR-5 = system: OVCAR-5
M14 = system: M14
OVCAR-3 = system: OVCAR-3
MDA-N = system: MDA-N
HCT-116 = system: HCT-116
SW-620 = system: SW-620
MDA-MB-231 = system: MDA-MB-231
BT-549 = system: BT-549
DU-145 = system: DU-145
UACC-257 = system: UACC-257
CAKI-1 = system: CAKI-1
LOX IMVI = system: LOX IMVI
SR = system: SR
SK-MEL-28 = system: SK-MEL-28
786-0 = system: 786-0
SNB-19 = system: SNB-19
HCT-15 = system: HCT-15
SF-295 = system: SF-295
PC-3 = system: PC-3
TK-10 = system: TK-10
MCF7 = system: MCF7

Question: For `O=c1[nH]c2ccc(CC(=S)N3CCCCC3)cc2s1`, which GI50 (MDA-MB-435) is on record?
Answer: The GI50 was > 100 µM (inactive).

Question: What about the GI50 (NCI-H23) of the same compound?
Answer: The GI50 was > 100 µM (inactive).

Question: And the GI50 (MOLT-4)?
Answer: Its GI50 is > 100 µM (inactive).

Question: And the GI50 (ACHN)?
Answer: Its GI50 is > 100 µM (inactive).

Question: What about the GI50 (EKVX) of the same compound?
Answer: The GI50 was 0.214 µM (active).

Question: What about the GI50 (K562) of the same compound?
Answer: Its GI50 is > 100 µM (inactive).

Question: What about the GI50 (SK-OV-3) of the same compound?
Answer: The GI50 was > 100 µM (inactive).

Question: What about the GI50 (SNB-75) of the same compound?
Answer: The GI50 was 0.163 µM (active).

Question: And the GI50 (OVCAR-8)?
Answer: Its GI50 is > 100 µM (inactive).

Question: What about the GI50 (KM12) of the same compound?
Answer: The GI50 was > 100 µM (inactive).

Question: What about the GI50 (UACC-62) of the same compound?
Answer: Its GI50 is > 100 µM (inactive).

Question: What about the GI50 (HOP-62) of the same compound?
Answer: The GI50 was 71.9 µM (inactive).

Question: What about the GI50 (SK-MEL-2) of the same compound?
Answer: The GI50 was > 100 µM (inactive).

Question: What about the GI50 (COLO 205) of the same compound?
Answer: The GI50 was > 100 µM (inactive).

Question: What about the GI50 (OVCAR-5) of the same compound?
Answer: Its GI50 is > 100 µM (inactive).

Question: What about the GI50 (M14) of the same compound?
Answer: Its GI50 is > 100 µM (inactive).

Question: What about the GI50 (OVCAR-3) of the same compound?
Answer: Its GI50 is > 100 µM (inactive).

Question: And the GI50 (MDA-N)?
Answer: Its GI50 is > 100 µM (inactive).

Question: And the GI50 (HCT-116)?
Answer: The GI50 was > 100 µM (inactive).

Question: And the GI50 (SW-620)?
Answer: The GI50 was > 100 µM (inactive).

Question: And the GI50 (MDA-MB-231)?
Answer: Its GI50 is > 100 µM (inactive).

Question: And the GI50 (BT-549)?
Answer: Its GI50 is > 100 µM (inactive).

Question: What about the GI50 (DU-145) of the same compound?
Answer: Its GI50 is > 100 µM (inactive).

Question: What about the GI50 (UACC-257) of the same compound?
Answer: The GI50 was > 100 µM (inactive).

Question: What about the GI50 (CAKI-1) of the same compound?
Answer: The GI50 was 91.6 µM (inactive).

Question: And the GI50 (LOX IMVI)?
Answer: Its GI50 is > 100 µM (inactive).

Question: And the GI50 (SR)?
Answer: Its GI50 is 26.4 µM (inactive).

Question: And the GI50 (SK-MEL-28)?
Answer: The GI50 was > 100 µM (inactive).

Question: And the GI50 (786-0)?
Answer: Its GI50 is > 100 µM (inactive).

Question: What about the GI50 (SNB-19) of the same compound?
Answer: The GI50 was > 100 µM (inactive).

Question: What about the GI50 (HCT-15) of the same compound?
Answer: The GI50 was > 100 µM.

Question: And the GI50 (SF-295)?
Answer: Its GI50 is > 100 µM (inactive).

Question: And the GI50 (PC-3)?
Answer: The GI50 was > 100 µM (inactive).

Question: And the GI50 (TK-10)?
Answer: Its GI50 is > 100 µM (inactive).

Question: What about the GI50 (MCF7) of the same compound?
Answer: Its GI50 is > 100 µM (inactive).
